Laboratory results published in patent US8076142B2, “Rooted plant assay system” (BASF Plant Sciences GmbH, priority 2006, dated 2011).

Tested on: soybean explants
Assay: Auxin effect on transformation efficiency in soybean explants (disarmed A. rhizogenes, root induction and selection medium)
Format: cell-based
Details: for transformation efficiency compared to control with no auxin: cotyledons from William 82 as explants
Method: Clean soybean seeds from soybean cultivar were sterilized in a chamber with chlorine gas produced by adding 3.5 ml 12N HCl drop wise into 100 ml bleach. All operations were conducted in a fume hood. After 24 hours in the chamber, seeds were removed and used immediately or stored at room temperature until use. Discolored seeds or cracked seeds were removed. To imbibe seeds, warm GM medium was poured around seeds until the seeds were entirely covered by the medium. Seedlings were grown in the light for 5-7 days until the epicotyl was extended beyond the cotyledons. Seedlings can be stored at 4° C. overnight before being used in transformation. The Germination Medium (GM) comprises: 1×B5 salts and vitamins, 1×MS iron stock, 2% sucrose, and 0.8% Noble agar at pH 5.8. As an alternative, soybean seeds can be germinated in 1% agar (50 ml) in Petri dishes for 7 days before Agrobacterium inoculation.
Three days before inoculation, a disarmed Agrobacterium culture, for example, the disarmed A. rhizogenes strain K599 liquid culture, was placed in 5 ml LB+Kan50 (containing 50 ug/ml Kanamycin) media in a 28° C. shaker (225 rpm) overnight. The next day, 1 ml of the culture was taken and spread onto an LB+Kan50 agar plate. The plates were incubated in a 28° C. incubator for two days. At the end of the two-day period the plates were covered with thick colonies. One plate was prepared for every 50 explants to be inoculated.
Soybean seedlings had elongated hypocotyls approximately 3 to 5 cm in length with visible epicotyls. The explants were then prepared by removing the epicotyls and part of the hypocotyls. The explant contained one or two cotyledons, an axillary meristem and the hypocotyl about 0.5 cm to about 3 cm in length. The seed coat was removed to facilitate cotyledon development. The cut end of the hypocotyl was the target for transformation/infection.
Alternatively, cotyledons containing the proximal end from its connection with the seedlings were used as another type of explant for transformation. The cut end was the target for Agrobacterium inoculation.
After the explants were cut off the seedlings, the cut end was immediately dipped onto the disarmed thick A. rhizogenes colonies prepared above so that the colonies were visible on the cut end. Alternatively, the explants can be immersed in the disarmed A. rhizogenes liquid culture for 30 minutes. The explants were then placed onto 1% agar in Petri dishes for co-cultivation. Approximately 10 explants were placed in one dish. The dishes were sealed with Saran wrap and co-cultured at 25-27° C. under light for 6-8 days.
After the transformation and co-cultivation step, soybean explants were transferred to rooting induction medium with a selection agent, for example, S-B5-605 or S-B5-607 for Bar gene selection (De Block et al., EMBO J. 6:2513-2518, 1987), or S-B5-708 for an AHAS mutant gene (Sathasivan et al., Plant Phys. 97:1044-50, 1991) selection, in Petri dishes. The cut end was inserted into the medium so that the callus developed from the cut end in the future was just below the medium surface. Six to nine explants were placed in each Petri dish. Cultures were maintained in the same condition as in the co-cultivation step.
The S-B5-605 medium comprises: 0.5×B5 salts, 3 mM MES, 2% sucrose, 1×B5 vitamins, 400 μg/ml Timentin, 0.8% Noble agar, 1 mg/1 IBA and 3 μg/ml Glufosinate Ammonion (selection agent for Bar gene) at pH 5.8. The S-MS-607 medium comprises: 0.2×MS salts and B5 vitamins, 2% sucrose, 400 mg/l Timentin, and 3 mg/L Glufosinate Ammonium at pH5.8. The S-B5-708 medium comprises: 0.5×B5 salts, 3 mM MES, 2% sucrose, 1×B5 vitamins, 400 μg/ml Timentin, 0.8% Noble agar, and 1 μM Imazapyr (selection agent for AHAS gene) (BASF Corporation, Florham Park, N.J.) at pH5.8.
Two to three weeks after the selection and root induction, transformed roots were formed on the cut ends of the explants. […]

Structure (SMILES)	transformation efficiency (NAA 1 mg/l in the medium)	transformation efficiency compared to control with no auxin (1 mg/l NAA)	transgenic roots obtained from hypocotyl explants (infected explants cultured and selected in medium containing 1 mg/l NAA)	transgenic roots obtained from hypocotyl explants (control, 0-1 mg/l IBA in the rooting induction and selection medium)	transformation efficiency compared to control with no auxin (3 mg/l IBA)	transformation efficiency (high concentration of IBA, 3 to 5 mg/l, in the medium)	transformation efficiency (soybean hypocotyl and cotyledon explants, medium with 1 mg/l IBA compared to no auxin)
O=C(O)Cc1cccc2ccccc12 [NAA, napthalene acetic acid]	dramatically increased	doubled	more than 20	–	–	–	–
O=C(O)CCCc1c[nH]c2ccccc12 [IBA, indole-3-butyric acid]	–	–	–	1-5	doubled	dramatically increased	similar
